BindingDB's records for doi:10.1016/j.bmcl.2006.04.011 (Ambrilia Biopharma, 2006)

molecular target: T1, Dimer of Gag-Pol polyprotein [501-599] (Human immunodeficiency virus 1, UniProt P03367); assay: Protease Inhibition Assay; conditions: not given
T1 construct: 501-599
Protocol: HIV-1 protease activity was measured by a continuous fluorometric assay. The proteolytic activity can be monitored by the increase in fluorescence intensity, and the protease products were analyzed by HPLC. IC50 values were determined from a dose-response curve, whereas Ki values were obtained by fitting initial rates to a tight-binding inhibition equation.

Row | Structure (SMILES) | IC50 | Ki
1 | CC(C)CN(C(CO)CCCCNC(=O)[C@@H](N)C(c1ccccc1)c1ccccc1)S(=O)(=O)c1ccc(N)cc1 (stereo partly drawn) [(2S)-2-amino-N-[(5R)-5-[(4-aminobenzene)(2-methylpropyl)sulfonamido]-6-hydroxyhexyl]-3,3-diphenylpropanamide] | 0.5 nM | 0.56 nM
2 | CC(C)CN(C(CO)CCCCNC(=O)[C@@H](NC(=O)C1CCCCC1)C(c1ccccc1)c1ccccc1)S(=O)(=O)c1ccc(N)cc1 (stereo partly drawn) [(2S)-N-[(5R)-5-[(4-aminobenzene)(2-methylpropyl)sulfonamido]-6-hydroxyhexyl]-2-(cyclohexylformamido)-3,3-diphenylpropanamide] | < 3.8 nM | –
3 | CC(C)CN(C(CO)CCCCNC(=O)[C@@H](NC(=O)C1CC1)C(c1ccccc1)c1ccccc1)S(=O)(=O)c1ccc(N)cc1 (stereo partly drawn) [(2S)-N-[(5R)-5-[(4-aminobenzene)(2-methylpropyl)sulfonamido]-6-hydroxyhexyl]-2-(cyclopropylformamido)-3,3-diphenylpropanamide] | 0.43 nM | 0.45 nM
4 | CC(C)CN(C(CO)CCCCNC(=O)[C@@H](NC(=O)N1CCOCC1)C(c1ccccc1)c1ccccc1)S(=O)(=O)c1ccc(N)cc1 (stereo partly drawn) [(2S)-N-[(5R)-5-[(4-aminobenzene)(2-methylpropyl)sulfonamido]-6-hydroxyhexyl]-2-(morpholin-4-ylcarbonylamino)-3,3-diphenylpropanamide] | 0.51 nM | 0.55 nM
5 | CC(C)CN(C(CO)CCCCNC(=O)[C@@H](NC(=O)c1ccccc1O)C(c1ccccc1)c1ccccc1)S(=O)(=O)c1ccc(N)cc1 (stereo partly drawn) [(2S)-N-[(5R)-5-[(4-aminobenzene)(2-methylpropyl)sulfonamido]-6-hydroxyhexyl]-2-[(2-hydroxyphenyl)formamido]-3,3-diphenylpropanamide] | 0.63 nM | 0.58 nM
6 | Cc1ncccc1C(=O)N[C@H](C(=O)NCCCCC(CO)N(CC(C)C)S(=O)(=O)c1ccc(N)cc1)C(c1ccccc1)c1ccccc1 (stereo partly drawn) [(2S)-N-[(5R)-5-[(4-aminobenzene)(2-methylpropyl)sulfonamido]-6-hydroxyhexyl]-2-[(2-methylpyridin-3-yl)formamido]-3,3-diphenylpropanamide] | 0.4 nM | 0.4 nM
7 | CC(C)CN(C(CO)CCCCNC(=O)[C@@H](NC(=O)c1ccc([N+](=O)[O-])c(O)c1)C(c1ccccc1)c1ccccc1)S(=O)(=O)c1ccc(N)cc1 (stereo partly drawn) [(2S)-N-[(5R)-5-[(4-aminobenzene)(2-methylpropyl)sulfonamido]-6-hydroxyhexyl]-2-[(3-hydroxy-4-nitrophenyl)formamido]-3,3-diphenylpropanamide] | 0.33 nM | 0.33 nM
8 | CC(C)CN(C(CO)CCCCNC(=O)[C@@H](NC(=O)c1cccc(O)c1)C(c1ccccc1)c1ccccc1)S(=O)(=O)c1ccc(N)cc1 (stereo partly drawn) [(2S)-N-[(5R)-5-[(4-aminobenzene)(2-methylpropyl)sulfonamido]-6-hydroxyhexyl]-2-[(3-hydroxyphenyl)formamido]-3,3-diphenylpropanamide] | 0.4 nM | 0.4 nM
9 | CC(C)CN(C(CO)CCCCNC(=O)[C@@H](NC(=O)c1ncccc1O)C(c1ccccc1)c1ccccc1)S(=O)(=O)c1ccc(N)cc1 (stereo partly drawn) [(2S)-N-[(5R)-5-[(4-aminobenzene)(2-methylpropyl)sulfonamido]-6-hydroxyhexyl]-2-[(3-hydroxypyridin-2-yl)formamido]-3,3-diphenylpropanamide] | 0.9 nM | 0.7 nM
10 | COc1cc(C(=O)N[C@H](C(=O)NCCCCC(CO)N(CC(C)C)S(=O)(=O)c2ccc(N)cc2)C(c2ccccc2)c2ccccc2)ccc1O (stereo partly drawn) [(2S)-N-[(5R)-5-[(4-aminobenzene)(2-methylpropyl)sulfonamido]-6-hydroxyhexyl]-2-[(4-hydroxy-3-methoxyphenyl)formamido]-3,3-diphenylpropanamide] | 0.5 nM | 0.45 nM
11 | CC(C)CN(C(CO)CCCCNC(=O)[C@@H](NC(=O)c1ccc(O)c([N+](=O)[O-])c1)C(c1ccccc1)c1ccccc1)S(=O)(=O)c1ccc(N)cc1 (stereo partly drawn) [(2S)-N-[(5R)-5-[(4-aminobenzene)(2-methylpropyl)sulfonamido]-6-hydroxyhexyl]-2-[(4-hydroxy-3-nitrophenyl)formamido]-3,3-diphenylpropanamide] | 0.56 nM | 0.48 nM
12 | CC(C)CN(C(CO)CCCCNC(=O)[C@@H](NC(=O)c1ccc(O)cc1)C(c1ccccc1)c1ccccc1)S(=O)(=O)c1ccc(N)cc1 (stereo partly drawn) [(2S)-N-[(5R)-5-[(4-aminobenzene)(2-methylpropyl)sulfonamido]-6-hydroxyhexyl]-2-[(4-hydroxyphenyl)formamido]-3,3-diphenylpropanamide] | 0.53 nM | 0.47 nM
13 | CC(C)CN(C(CO)CCCCNC(=O)[C@@H](NC(=O)c1ccc(N)nc1)C(c1ccccc1)c1ccccc1)S(=O)(=O)c1ccc(N)cc1 (stereo partly drawn) [(2S)-N-[(5R)-5-[(4-aminobenzene)(2-methylpropyl)sulfonamido]-6-hydroxyhexyl]-2-[(6-aminopyridin-3-yl)formamido]-3,3-diphenylpropanamide] | 0.4 nM | 0.5 nM
14 | CC(C)CN(C(CO)CCCCNC(=O)[C@@H](NC(=O)c1ccc(=O)[nH]c1)C(c1ccccc1)c1ccccc1)S(=O)(=O)c1ccc(N)cc1 (stereo partly drawn) [(2S)-N-[(5R)-5-[(4-aminobenzene)(2-methylpropyl)sulfonamido]-6-hydroxyhexyl]-2-[(6-hydroxypyridin-3-yl)formamido]-3,3-diphenylpropanamide] | 0.5 nM | 0.4 nM
15 | Cc1ccc(C(=O)N[C@H](C(=O)NCCCCC(CO)N(CC(C)C)S(=O)(=O)c2ccc(N)cc2)C(c2ccccc2)c2ccccc2)cn1 (stereo partly drawn) [(2S)-N-[(5R)-5-[(4-aminobenzene)(2-methylpropyl)sulfonamido]-6-hydroxyhexyl]-2-[(6-methylpyridin-3-yl)formamido]-3,3-diphenylpropanamide] | 0.4 nM | 0.5 nM
16 | CC(C)CN(C(CO)CCCCNC(=O)[C@@H](NC(=O)N(C)C)C(c1ccccc1)c1ccccc1)S(=O)(=O)c1ccc(N)cc1 (stereo partly drawn) [(2S)-N-[(5R)-5-[(4-aminobenzene)(2-methylpropyl)sulfonamido]-6-hydroxyhexyl]-2-[(dimethylcarbamoyl)amino]-3,3-diphenylpropanamide] | 0.44 nM | 0.58 nM
17 | CC(=O)N[C@H](C(=O)NCCCCC(CO)N(CC(C)C)S(=O)(=O)c1ccc(N)cc1)C(c1ccccc1)c1ccccc1 (stereo partly drawn) [(2S)-N-[(5R)-5-[(4-aminobenzene)(2-methylpropyl)sulfonamido]-6-hydroxyhexyl]-2-acetamido-3,3-diphenylpropanamide] | 1.5 nM | –
18 | CC(C)CN(C(CO)CCCCNC(=O)[C@@H](NC(=O)c1ccc[nH]1)C(c1ccccc1)c1ccccc1)S(=O)(=O)c1ccc(N)cc1 (stereo partly drawn) [(2S)-N-[(5R)-5-[(4-aminobenzene)(2-methylpropyl)sulfonamido]-6-hydroxyhexyl]-3,3-diphenyl-2-(1H-pyrrol-2-ylformamido)propanamide] | 0.43 nM | 0.47 nM
19 | CC(C)CN(C(CO)CCCCNC(=O)[C@@H](NC(=O)c1ccccn1)C(c1ccccc1)c1ccccc1)S(=O)(=O)c1ccc(N)cc1 (stereo partly drawn) [(2S)-N-[(5R)-5-[(4-aminobenzene)(2-methylpropyl)sulfonamido]-6-hydroxyhexyl]-3,3-diphenyl-2-(pyridin-2-ylformamido)propanamide] | 0.46 nM | 0.44 nM
20 | CC(C)CN(C(CO)CCCCNC(=O)[C@@H](NC(=O)c1cccnc1)C(c1ccccc1)c1ccccc1)S(=O)(=O)c1ccc(N)cc1 (stereo partly drawn) [(2S)-N-[(5R)-5-[(4-aminobenzene)(2-methylpropyl)sulfonamido]-6-hydroxyhexyl]-3,3-diphenyl-2-(pyridin-3-ylformamido)propanamide] | 0.68 nM | 0.55 nM
21 | CC(C)CN(C(CO)CCCCNC(=O)[C@@H](NC(=O)c1ccncc1)C(c1ccccc1)c1ccccc1)S(=O)(=O)c1ccc(N)cc1 (stereo partly drawn) [(2S)-N-[(5R)-5-[(4-aminobenzene)(2-methylpropyl)sulfonamido]-6-hydroxyhexyl]-3,3-diphenyl-2-(pyridin-4-ylformamido)propanamide] | 0.65 nM | 0.66 nM
22 | CC(C)CN(C(CO)CCCCNC(=O)[C@@H](NC(=O)Cc1cccnc1)C(c1ccccc1)c1ccccc1)S(=O)(=O)c1ccc(N)cc1 (stereo partly drawn) [(2S)-N-[(5R)-5-[(4-aminobenzene)(2-methylpropyl)sulfonamido]-6-hydroxyhexyl]-3,3-diphenyl-2-[1-(pyridin-3-yl)acetamido]propanamide] | 0.24 nM | 0.34 nM

same assay, conditions: pH 4.7; 30 °C

Row | Structure (SMILES) | IC50
23 | COC(=O)N1Cc2ccccc2C=C1C(=O)NCCCCC(CO)N(CC(C)C)S(=O)(=O)c1ccc(N)cc1 (configuration not stated) [lysine sulfonamide analogue 8] | 130 nM
24 | COC(=O)N[C@@H](Cc1ccccc1-c1ccccc1)C(=O)NCCCCC(CO)N(CC(C)C)S(=O)(=O)c1ccc(N)cc1 (stereo partly drawn) [methyl N-[(1S)-1-{[(5R)-5-[(4-aminobenzene)(2-methylpropyl)sulfonamido]-6-hydroxyhexyl]carbamoyl}-2-(2-phenylphenyl)ethyl]carbamate] | 0.521 nM
25 | COC(=O)N[C@@H](Cc1cccc2ccccc12)C(=O)NCCCCC(CO)N(CC(C)C)S(=O)(=O)c1ccc(N)cc1 (stereo partly drawn) [methyl N-[(1S)-1-{[(5R)-5-[(4-aminobenzene)(2-methylpropyl)sulfonamido]-6-hydroxyhexyl]carbamoyl}-2-(naphthalen-1-yl)ethyl]carbamate] | 1.2 nM
26 | COC(=O)N[C@@H](Cc1ccc2ccccc2c1)C(=O)NCCCCC(CO)N(CC(C)C)S(=O)(=O)c1ccc(N)cc1 (stereo partly drawn) [methyl N-[(1S)-1-{[(5R)-5-[(4-aminobenzene)(2-methylpropyl)sulfonamido]-6-hydroxyhexyl]carbamoyl}-2-(naphthalen-2-yl)ethyl]carbamate] | 1.2 nM
27 | COC(=O)N[C@@H](Cc1ccccc1)C(=O)NCCCCC(CO)N(CC(C)C)S(=O)(=O)c1ccc(N)cc1 (stereo partly drawn) [methyl N-[(1S)-1-{[(5R)-5-[(4-aminobenzene)(2-methylpropyl)sulfonamido]-6-hydroxyhexyl]carbamoyl}-2-phenylethyl]carbamate] | 12 nM
